In ChEMBL document CHEMBL2177034, “Inhibition of hypoxia inducible factor-2 transcription: isolation of active modulators from marine sponges” (J Nat Prod, 2012):
Calls of active or inactive are those of the source. The rule behind the calls is not given here.

Legend:
[1] = target: T1, Endothelial PAS domain-containing protein 1 (Homo sapiens, UniProt Q99814); experiment: Inhibition of HIF2alpha in human RCC4 cells coexpressing HIF1alpha assessed as reduction in CCND1 mRNA expression at 79 uM after 48 hrs by RT-PCR analysis; type: cell-based
[2] = target: T1, Endothelial PAS domain-containing protein 1; experiment: Inhibition of HIF2alpha in human 786-0 cells assessed as reduction in TGFalpha mRNA expression at 79 uM after 48 hrs by RT-PCR analysis; type: cell-based
786-0 [3] = experiment: Cytotoxicity against human 786-0 cells expressing HIF2alpha after 2 days by XTT assay; type: functional, cell-based; conditions: 786-0, 48 h
786-0 [4] = experiment: Downregulation of HIF1alpha mRNA expression in human 786-0 cells at 79 uM after 48 hrs by RT-PCR analysis; type: functional, cell-based
[5] = target: T1, Endothelial PAS domain-containing protein 1; experiment: Inhibition of HIF2alpha in human 786-0 cells assessed as reduction in CCND1 mRNA expression at 79 uM after 48 hrs by RT-PCR analysis; type: cell-based
[6] = target: T1, Endothelial PAS domain-containing protein 1; experiment: Inhibition of HIF2alpha in human RCC4 cells coexpressing HIF1alpha assessed as reduction in TGFalpha mRNA expression at 79 uM after 48 hrs by RT-PCR analysis; type: cell-based
786-0 [7] = experiment: Induction of total protein expression in serum deprived human 786-0 cells at 79 uM after 48 hrs relative to control; type: cell-based; conditions: 786-0, 48 h
[8] = target: T1, Endothelial PAS domain-containing protein 1; experiment: Inhibition of HIF2alpha in human RCC4 cells coexpressing HIF1alpha assessed as reduction in GLUT1 mRNA expression at 79 uM after 48 hrs by RT-PCR analysis; type: cell-based
[9] = target: Hypoxia-inducible factor 1-alpha (Homo sapiens) (UniProt Q16665); experiment: Inhibition of HIF1alpha in human RCC4 cells coexpressing HIF2alpha assessed as decrease in carbonic anhydrase 9 mRNA expression at 79 uM after 48 hrs by RT-PCR analysis; type: cell-based
786-0 [10] = experiment: Upregulation of carbonic anhydrase 9 mRNA expression in human 786-0 cells at 79 uM after 48 hrs by RT-PCR analysis; type: ADME, cell-based; conditions: 786-0, 48 h
[11] = target: Hypoxia-inducible factor 1-alpha (Homo sapiens) (UniProt Q16665); experiment: Inhibition of HIF1alpha in human SK-RC-28 cells assessed as reduction in VEGFA expression at 79 uM after 48 hrs by RT-PCR analysis; type: cell-based
[12] = Downregulation of CCND1 mRNA expression in human SK-RC-28 cells at 79 uM after 48 hrs by RT-PCR analysis; type: functional, cell-based
[13] = target: T1, Endothelial PAS domain-containing protein 1; experiment: Inhibition of HIF2alpha in human 786-0 cells assessed as reduction in VEGFA mRNA expression at 79 uM after 48 hrs by RT-PCR analysis; type: cell-based
[14] = Downregulation of HIF1alpha mRNA expression in human RCC4 cells at 79 uM after 48 hrs by RT-PCR analysis; type: functional, cell-based
[15] = target: T2, Hypoxia inducible factors; HIF-1-alpha, HIF-2-alpha (Homo sapiens) (UniProt Q16665+Q99814); experiment: Inhibition of HIF1alpha/2alpha in human RCC4 cells assessed as reduction in VEGFA mRNA expression at 79 uM after 48 hrs by RT-PCR analysis; type: cell-based
786-0 [16] = experiment: Induction of HIF-mediated VEGFA expression in serum deprived human 786-0 cells at 79 uM after 48 hrs relative to control; type: cell-based
786-0 [17] = experiment: Downregulation of HIF2alpha mRNA expression in human 786-0 cells at 79 uM after 48 hrs by RT-PCR analysis; type: functional, cell-based
[18] = target: Hypoxia-inducible factor 1-alpha (Homo sapiens) (UniProt Q16665); experiment: Inhibition of HIF1alpha in human SK-RC-28 cells assessed as reduction in carbonic anhydrase expression at 79 uM after 48 hrs by RT-PCR analysis; type: cell-based
[19] = target: T1, Endothelial PAS domain-containing protein 1; experiment: Inhibition of HIF2alpha in human 786-0 cells assessed as reduction in GLUT1 mRNA expression at 79 uM after 48 hrs by RT-PCR analysis; type: cell-based
[20] = Downregulation of GLUT1 mRNA expression in human SK-RC-28 cells at 79 uM after 48 hrs by RT-PCR analysis; type: functional, cell-based
[21] = Downregulation of TGFalpha mRNA expression in human SK-RC-28 cells at 79 uM after 48 hrs by RT-PCR analysis; type: functional, cell-based
[22] = Cytotoxicity against human SK-RC-28 cells expressing HIF1alpha after 2 days by XTT assay; type: functional, cell-based; conditions: 48 h
[23] = Cytotoxicity against human RCC4 cells expressing HIF2alpha and HIF1alpha after 2 days by XTT assay; type: functional, cell-based; conditions: RCC4, 48 h
[24] = Downregulation of HIF2alpha mRNA expression in human SK-RC-28 cells at 79 uM after 48 hrs by RT-PCR analysis; type: functional, cell-based
[25] = Downregulation of HIF2alpha mRNA expression in human RCC4 cells at 79 uM after 48 hrs by RT-PCR analysis; type: functional, cell-based
[26] = Downregulation of HIF1alpha mRNA expression in human SK-RC-28 cells at 79 uM after 48 hrs by RT-PCR analysis; type: functional, cell-based
[27] = target: T1, Endothelial PAS domain-containing protein 1; experiment: Inhibition of HIF2alpha in human 786-0 cells expressing truncated HIF1alpha assessed as reduction in luciferase activity after 24 hrs by reporter gene assay; type: cell-based
[28] = (§1) Downregulation of HIF2alpha mRNA expression in human RCC4 cells at 20 uM after 48 hrs by RT-PCR analysis; type: functional, cell-based
[29] = target: T1, Endothelial PAS domain-containing protein 1; experiment: Inhibition of HIF2alpha in human 786-0 cells assessed as reduction in VEGFA mRNA expression at 20 uM after 48 hrs by RT-PCR analysis; type: cell-based
786-0 [30] = experiment: Downregulation of actin mRNA expression in human […] at 20 uM after 48 hrs by RT-PCr analysis; type: ADME, cell-based; conditions: 786-0, 48 h
[31] = Downregulation of actin mRNA expression in human RCC4 cells expressing HIF1alpha and HIF2alpha at 20 uM after 48 hrs by RT-PCr analysis; type: ADME, cell-based; conditions: rcc4, 48 h
[32] = target: T2, Hypoxia inducible factors; HIF-1-alpha, HIF-2-alpha (Homo sapiens); experiment: Inhibition of HIF1alpha/2alpha in human RCC4 cells assessed as reduction in VEGFA mRNA expression at 20 uM after 48 hrs by RT-PCR analysis; type: cell-based
[33] = target: T1, Endothelial PAS domain-containing protein 1; experiment: Inhibition of HIF2alpha in human 786-0 cells assessed as reduction in GLUT1 mRNA expression at 20 uM after 48 hrs by RT-PCR analysis; type: cell-based
[34] = target: T1, Endothelial PAS domain-containing protein 1; experiment: Inhibition of HIF2alpha in human RCC4 cells coexpressing HIF1alpha assessed as reduction in GLUT1 mRNA expression at 20 uM after 48 hrs by RT-PCR analysis; type: cell-based
786-0 [35] = experiment: Inhibition of HIF-mediated VEGFA protein expression in serum deprived human 786-0 cells at 20 uM after 48 hrs relative to control; type: cell-based
[36] = target: Hypoxia-inducible factor 1-alpha (Homo sapiens) (UniProt Q16665); experiment: Inhibition of HIF1alpha in human RCC4 cells coexpressing HIF2alpha assessed as decrease in carbonic anhydrase 9 mRNA expression at 20 uM after 48 hrs by RT-PCR analysis; type: cell-based
[37] = Downregulation of CCND1 mRNA expression in human SK-RC-28 cells at 20 uM after 48 hrs by RT-PCR analysis; type: functional, cell-based
786-0 [38] = experiment: Inhibition of total protein expression in serum deprived human 786-0 cells at 20 uM after 48 hrs relative to control; type: cell-based; conditions: 786-0, 48 h, 20 µM
[39] = (§2) Downregulation of HIF1alpha mRNA expression in human RCC4 cells at 20 uM after 48 hrs by RT-PCR analysis; type: functional, cell-based
[40] = Downregulation of GLUT1 mRNA expression in human SK-RC-28 cells at 20 uM after 48 hrs by RT-PCR analysis; type: functional, cell-based
[41] = target: T1, Endothelial PAS domain-containing protein 1; experiment: Inhibition of HIF2alpha in human 786-0 cells assessed as reduction in TGFalpha mRNA expression at 20 uM after 48 hrs by RT-PCR analysis; type: cell-based
[42] = Downregulation of actin mRNA expression in human SK-RC-28 cells expressing HIF2alpha at 20 uM after 48 hrs by RT-PCr analysis; type: ADME, cell-based
[43] = target: T1, Endothelial PAS domain-containing protein 1; experiment: Inhibition of HIF2alpha in human RCC4 cells coexpressing HIF1alpha assessed as reduction in CCND1 mRNA expression at 20 uM after 48 hrs by RT-PCR analysis; type: cell-based
[44] = Downregulation of TGFalpha mRNA expression in human SK-RC-28 cells at 20 uM after 48 hrs by RT-PCR analysis; type: functional, cell-based
[45] = target: Hypoxia-inducible factor 1-alpha (Homo sapiens) (UniProt Q16665); experiment: Inhibition of HIF1alpha in human SK-RC-28 cells assessed as reduction in carbonic anhydrase expression at 20 uM after 48 hrs by RT-PCR analysis; type: cell-based
[46] = as §1; type: functional, cell-based; remark: listed apart in the source
786-0 [47] = experiment: Downregulation of carbonic anhydrase 9 expression in human 786-0 cells at 20 uM after 48 hrs by RT-PCR analysis; type: functional, cell-based
[48] = Downregulation of HIF2alpha mRNA expression in human SK-RC-28 cells at 20 uM after 48 hrs by RT-PCR analysis; type: functional, cell-based
[49] = target: T1, Endothelial PAS domain-containing protein 1; experiment: Inhibition of HIF2alpha in human RCC4 cells coexpressing HIF1alpha assessed as reduction in TGFalpha mRNA expression at 20 uM after 48 hrs by RT-PCR analysis; type: cell-based
[50] = Downregulation of HIF1alpha mRNA expression in human SK-RC-28 cells at 20 uM after 48 hrs by RT-PCR analysis; type: functional, cell-based
[51] = target: T1, Endothelial PAS domain-containing protein 1; experiment: Inhibition of HIF2alpha in human 786-0 cells assessed as reduction in CCND1 mRNA expression at 20 uM after 48 hrs by RT-PCR analysis; type: cell-based
[52] = target: Hypoxia-inducible factor 1-alpha (Homo sapiens) (UniProt Q16665); experiment: Inhibition of HIF1alpha in human SK-RC-28 cells assessed as reduction in carbonic anhydrase 9 expression at 20 uM after 48 hrs by RT-PCR analysis; type: cell-based
786-0 [53] = experiment: Downregulation of HIF1alpha mRNA expression in human 786-0 cells at 20 uM after 48 hrs by RT-PCR analysis; type: functional, cell-based
786-0 [54] = experiment: Downregulation of HIF2alpha mRNA expression in human 786-0 cells at 20 uM after 48 hrs by RT-PCR analysis; type: functional, cell-based
[55] = target: Hypoxia-inducible factor 1-alpha (Homo sapiens) (UniProt Q16665); experiment: Inhibition of HIF1alpha in human SK-RC-28 cells assessed as reduction in VEGFA expression at 20 uM after 48 hrs by RT-PCR analysis; type: cell-based
[56] = as §2; type: functional, cell-based; remark: listed apart in the source

Sequence of Hypoxia-inducible factor 1-alpha (Homo sapiens) (Q16665 whole entry, looked up, the tested form may be a part): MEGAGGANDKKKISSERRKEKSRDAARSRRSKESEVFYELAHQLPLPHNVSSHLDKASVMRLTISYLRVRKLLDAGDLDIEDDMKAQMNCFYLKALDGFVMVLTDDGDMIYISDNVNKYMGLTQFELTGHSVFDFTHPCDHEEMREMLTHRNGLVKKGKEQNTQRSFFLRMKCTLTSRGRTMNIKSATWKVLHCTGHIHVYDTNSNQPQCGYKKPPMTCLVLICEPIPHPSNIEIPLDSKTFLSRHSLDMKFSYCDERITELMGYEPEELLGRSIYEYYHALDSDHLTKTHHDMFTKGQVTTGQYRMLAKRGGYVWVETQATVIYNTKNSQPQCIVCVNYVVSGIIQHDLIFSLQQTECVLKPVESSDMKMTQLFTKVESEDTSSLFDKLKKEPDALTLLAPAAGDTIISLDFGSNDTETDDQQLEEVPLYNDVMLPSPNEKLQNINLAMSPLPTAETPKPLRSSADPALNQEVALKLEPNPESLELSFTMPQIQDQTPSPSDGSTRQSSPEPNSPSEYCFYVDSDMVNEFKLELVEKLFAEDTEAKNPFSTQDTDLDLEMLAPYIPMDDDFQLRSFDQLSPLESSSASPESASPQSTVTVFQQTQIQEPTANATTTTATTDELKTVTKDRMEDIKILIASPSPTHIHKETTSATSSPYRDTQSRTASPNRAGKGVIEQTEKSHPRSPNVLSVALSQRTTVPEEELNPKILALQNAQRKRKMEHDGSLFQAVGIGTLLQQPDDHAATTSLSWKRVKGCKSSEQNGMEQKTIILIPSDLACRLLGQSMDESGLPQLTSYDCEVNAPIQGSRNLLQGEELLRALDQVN
T1 sequence (Q99814 whole entry, the tested form may be a part): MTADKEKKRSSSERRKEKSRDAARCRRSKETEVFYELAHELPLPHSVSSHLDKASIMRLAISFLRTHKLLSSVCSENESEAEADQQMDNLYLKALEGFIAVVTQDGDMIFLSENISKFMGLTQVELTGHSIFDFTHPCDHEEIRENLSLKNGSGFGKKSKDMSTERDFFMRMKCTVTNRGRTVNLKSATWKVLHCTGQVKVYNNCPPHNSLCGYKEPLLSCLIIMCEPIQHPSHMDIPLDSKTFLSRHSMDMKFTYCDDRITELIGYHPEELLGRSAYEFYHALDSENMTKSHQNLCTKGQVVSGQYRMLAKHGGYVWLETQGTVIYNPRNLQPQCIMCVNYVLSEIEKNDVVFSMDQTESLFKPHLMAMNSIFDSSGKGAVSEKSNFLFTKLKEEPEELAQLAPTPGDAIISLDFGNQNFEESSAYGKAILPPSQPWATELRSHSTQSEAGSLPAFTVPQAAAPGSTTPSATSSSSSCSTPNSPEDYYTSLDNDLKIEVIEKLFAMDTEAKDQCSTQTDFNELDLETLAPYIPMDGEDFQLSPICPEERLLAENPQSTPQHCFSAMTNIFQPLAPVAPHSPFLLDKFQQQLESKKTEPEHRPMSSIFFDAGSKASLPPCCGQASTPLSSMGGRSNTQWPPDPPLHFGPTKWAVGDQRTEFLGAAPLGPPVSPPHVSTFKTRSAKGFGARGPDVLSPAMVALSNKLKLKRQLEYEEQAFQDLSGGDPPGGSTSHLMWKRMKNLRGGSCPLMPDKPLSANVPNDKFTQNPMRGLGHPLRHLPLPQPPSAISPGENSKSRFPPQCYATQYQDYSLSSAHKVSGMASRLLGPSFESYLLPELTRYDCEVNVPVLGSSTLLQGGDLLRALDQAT

C/C=C(/C)C(=O)OCC1C2=C(C=CN1C=O)C(=O)C(C)=C(OC)C2=O (mixture of isomers)
inhibition [1]: Active
inhibition [2]: Active
IC50 (786-0 [3]): 33.8 µM
Activity (786-0 [4]): Active
inhibition [5]: Active
inhibition [6]: Active
Activity (786-0 [7]): Toxic
inhibition [8]: Active
inhibition [9]: Active
Activity (786-0 [10]): Toxic
inhibition [11]: inactive
Activity [12]: inactive
inhibition [13]: Active
Activity [14]: Active
inhibition [15]: Active
Activity (786-0 [16]): Active
Activity (786-0 [17]): Active
inhibition [18]: inactive
inhibition [19]: Active
Activity [20]: inactive
Activity [21]: inactive
IC50 [22]: 38.7 µM
IC50 [23]: 26.3 µM
Activity [24]: inactive
Activity [25]: Active
Activity [26]: inactive
EC50 [27]: 2.7 µM

C#C[C@@H](O)/C=C/CCCCCCC#C[C@H](O)C#C/C=C/CC/C=C\CCCC/C=C\CCCCCCCCCCCCC/C=C/[C@@H](O)C#C [NEOPETROFORMYNE A]
Activity [28]: Active
inhibition [29]: Active
Activity (786-0 [30]): Toxic
IC50 (786-0 [3]): 14.4 µM
Activity [31]: Toxic
inhibition [32]: Active
inhibition [33]: Active
inhibition [34]: Active
inhibition (786-0 [35]): Active
inhibition [36]: Active
Activity [37]: Active
Activity (786-0 [38]): Toxic
Activity [39]: Active
Activity [40]: Active
inhibition [41]: Active
Activity [42]: Toxic
inhibition [43]: Active
Activity [44]: Active
inhibition [45]: Active
Activity [46]: Active
Activity (786-0 [47]): Active
IC50 [22]: 35.1 µM
Activity [48]: Active
IC50 [23]: 27.5 µM
inhibition [49]: Active
Activity [50]: Active
inhibition [51]: Active
inhibition [52]: Active
EC50 [27]: 8.7 µM
Activity (786-0 [53]): Active
Activity (786-0 [54]): Active
inhibition [55]: Active
Activity [56]: Active
